{"source": "paper PMC4402242", "about": "(Chemico-biological interactions, 2014)", "key": {"[1]": {"test_system": "Sprague-Dawley rat hepatocytes", "details": "cited from earlier work"}, "[2]": {"test_system": "rat renal proximal tubules", "details": "rat renal proximal tubules with hepatic subcellular fractions; cited from earlier work"}, "[3]": {"test_system": "isolated renal cortical cells (IRCC)", "test": "LDH release from isolated renal cortical cells", "details": "for direct nephrotoxic potential of the aminophenols in decreasing order / Cytotoxicity (LDH release) in words / LDH (% Release) 4-A2CP: IRCC; for direct nephrotoxic potential of the aminophenols in decreasing order: 0.5 and 1.0 mM; for direct nephrotoxic potential of the aminophenols in decreasing order / LDH (% Release) 4-A2CP / LDH (% Release) Pretreatment: 1 h; for Cytotoxicity (LDH release) in words: aminophenol 0.5 mM, 1 h (Fig. 2); for LDH (% Release) 4-A2CP: % of total LDH; for LDH (% Release) 4-A2CP / LDH (% Release) Pretreatment: mean ± S.E.; for Effect of pretreatment on 4-A2CP cytotoxicity: pretreatment concentration and time per Table 1; for LDH (% Release) Pretreatment: pretreatment compound alone, plus 4-A2CP vehicle"}, "LLC-PK1 cells": {"test_system": "LLC-PK1 cells", "details": "cited from earlier work"}, "[4]": {"test_system": "isolated renal cortical cells (IRCC)"}, "[5]": {"test_system": "Fischer 344 rat renal cortical slices", "details": "cited from earlier work"}, "peroxidase": {"test_system": "peroxidase", "details": "cited from earlier work"}}, "note": "Several values for one entry are separate records, joined by “and”; a condition that tells them apart may be missing. Equal entries are not always repeated. Where two headings read alike, the source gives them in different places. Marks after values point to notes of the source that are not given here.", "data": [{"smiles": "Nn1nnc2ccccc21", "note": "[1-aminobenzotriazole]", "values": [{"measurement": "Effect on 4-AP metabolism", "setting": "[1]", "value": "did not alter"}, {"measurement": "Effect on 4-AP nephrotoxicity", "setting": "[2]", "value": "did not alter"}]}, {"smiles": "Nc1cc(Cl)c(O)c(Cl)c1", "note": "[4-A2,6DCP, 4-amino-2,6-dichlorophenol]", "values": [{"measurement": "direct nephrotoxic potential of the aminophenols in decreasing order", "setting": "[3]", "value": "4-A2,6DCP > 4-A2CP > 4-AP > 4-A3CP"}, {"measurement": "Cytotoxicity (LDH release) in words", "setting": "[3]", "value": "marked cytotoxicity was observed"}]}, {"smiles": "Nc1ccc(O)c(Cl)c1", "note": "[4-A2CP, 4-amino-2-chlorophenol]", "values": [{"measurement": "LDH (% Release) 4-A2CP", "setting": "[3]; 4-A2CP 0.5 mM alone", "value": "33.0 ± 2.7 ^b % and 52.0 ± 2.5 ^b % and 39.5 ± 0.6 ^b % and 43.0 ± 1.4 ^b % and 38.3 ± 4.9 ^b % and 43.5 ± 3.2 ^b %"}, {"measurement": "LDH (% Release) 4-A2CP", "setting": "[3]; 4-A2CP 1.0 mM alone", "value": "42.6 ± 0.6 ^b % and 54.4 ± 2.3 ^b % and 51.3 ± 3.2 ^b % and 51.4 ± 4.9 ^b % and 53.9 ± 6.5 ^b % and 49.9 ± 4.3 ^b %"}, {"measurement": "direct nephrotoxic potential of the aminophenols in decreasing order", "setting": "[3]", "value": "4-A2,6DCP > 4-A2CP > 4-AP > 4-A3CP"}, {"measurement": "Cytotoxicity (LDH release) in words", "setting": "[3]", "value": "marked cytotoxicity was observed"}]}, {"smiles": "Nc1ccc(O)cc1Cl", "note": "[4-A3CP, 4-amino-3-chlorophenol]", "values": [{"measurement": "direct nephrotoxic potential of the aminophenols in decreasing order", "setting": "[3]", "value": "4-A2,6DCP > 4-A2CP > 4-AP > 4-A3CP"}, {"measurement": "Cytotoxicity (LDH release) in words", "setting": "[3]", "value": "Cytotoxicity was not observed"}]}, {"smiles": "O=C1O[C@H]([C@@H](O)CO)C(O)=C1O", "note": "[Ascorbate]", "values": [{"measurement": "Effect of pretreatment on 4-A2CP cytotoxicity", "setting": "[3]; 4-A2CP 0.5 and 1.0 mM", "value": "attenuated"}]}, {"smiles": "Cc1cc(C(C)(C)C)c(O)c(C(C)(C)C)c1", "note": "[BHT, butylated hydroxytoluene]", "values": [{"measurement": "Effect on 4-AP cytotoxicity", "setting": "LLC-PK1 cells", "value": "did not prevent"}]}, {"smiles": "c1ccc(Nc2ccc(Nc3ccccc3)cc2)cc1", "note": "[DPPD, N,N’-diphenyl-p-phenylenediamine]", "values": [{"measurement": "Effect of pretreatment on 4-A2CP cytotoxicity", "setting": "[4]", "value": "did not reduce"}, {"measurement": "Effect on 4-A2,6-DCP cytotoxicity", "setting": "[5]", "value": "unable to attenuate"}]}, {"smiles": "N[C@@H](CCC(=O)N[C@@H](CS)C(=O)NCC(=O)O)C(=O)O", "note": "[Glutathione]", "values": [{"measurement": "Effect of pretreatment on 4-A2CP cytotoxicity", "setting": "[3]; 4-A2CP 1.0 mM", "value": "completely attenuated"}]}, {"smiles": "NNC(=O)c1ccncc1", "note": "[Isoniazid]", "values": [{"measurement": "Effect of pretreatment on 4-A2CP cytotoxicity", "setting": "[3]; 4-A2CP 0.5 and 1.0 mM", "value": "No alteration"}, {"measurement": "LDH (% Release) Pretreatment", "setting": "[3]; 1.0 mM", "value": "18.6 ± 0.7% and 20.7 ± 0.9%"}]}, {"smiles": "CC(=O)N1CCN(c2ccc(OCC3COC(Cn4ccnc4)(c4ccc(Cl)cc4Cl)O3)cc2)CC1", "note": "(stereo not shown) [Ketoconazole]", "values": [{"measurement": "LDH (% Release) Pretreatment", "setting": "[3]; 0.1 mM", "value": "22.4 ± 0.9% and 26.1 ± 1.7%"}]}, {"smiles": "O=C(O)CC(S)C(=O)O", "note": "(stereo not shown) [Mercaptosuccinate, mercaptosuccinic acid]", "values": [{"measurement": "Effect of pretreatment on 4-A2CP cytotoxicity", "setting": "[4]", "value": "attenuated"}]}, {"smiles": "Cn1cc[nH]c1=S", "note": "[Methimazole]", "values": [{"measurement": "LDH (% Release) Pretreatment", "setting": "[3]; 1.0 mM", "value": "22.0 ± 0.5% and 19.7 ± 2.2%"}]}, {"smiles": "CC(C)(C(=O)c1cccnc1)c1cccnc1", "note": "[Metyrapone]", "values": [{"measurement": "peroxidase inhibitor properties", "setting": "peroxidase", "value": "but not metyrapone"}, {"measurement": "Effect of pretreatment on 4-A2CP cytotoxicity", "setting": "[3]; 4-A2CP 0.5 mM", "value": "potentiated"}, {"measurement": "Effect of pretreatment on 4-A2CP cytotoxicity", "setting": "[3]; 4-A2CP 1.0 mM", "value": "no potentiation or attenuation"}, {"measurement": "LDH (% Release) Pretreatment", "setting": "[3]; 1.0 mM", "value": "21.3 ± 0.6% and 20.6 ± 0.9%"}]}, {"smiles": "CC(=O)N[C@@H](CS)C(=O)O", "note": "[N-Acetyl-L-cysteine]", "values": [{"measurement": "Effect of pretreatment on 4-A2CP cytotoxicity", "setting": "[3]; 4-A2CP 1.0 mM", "value": "partially attenuated"}]}, {"smiles": "CCCCCCCCN", "note": "[N-Octylamine]", "values": [{"measurement": "Effect of pretreatment on 4-A2CP cytotoxicity", "setting": "[3]; 4-A2CP 0.5 and 1.0 mM", "value": "No alteration"}, {"measurement": "LDH (% Release) Pretreatment", "setting": "[3]; 0.2 mM", "value": "27.5 ± 1.1% and 20.0 ± 0.9%"}]}, {"smiles": "CCCCOCCOCCOCc1cc2c(cc1CCC)OCO2", "note": "[Piperonyl butoxide]", "values": [{"measurement": "peroxidase inhibitor properties", "setting": "peroxidase", "value": "has peroxidase inhibitor properties"}, {"measurement": "Effect of pretreatment on 4-A2CP cytotoxicity", "setting": "[3]; 4-A2CP 0.5 and 1.0 mM", "value": "attenuated"}, {"measurement": "LDH (% Release) Pretreatment", "setting": "[3]; 1.0 mM", "value": "19.1 ± 2.5% and 25.0 ± 1.0%"}]}, {"smiles": "Cc1c(C)c2c(c(C)c1O)CC[C@@](C)(CCC[C@H](C)CCC[C@H](C)CCCC(C)C)O2", "note": "[α-Tocopherol]", "values": [{"measurement": "Effect on 4-A2,6-DCP cytotoxicity", "setting": "[5]", "value": "unable to attenuate"}]}]}
